The record followed here is patent publication US9096543B2, “Nuclear transport modulators and uses thereof” (Karyopharm Therapeutics Inc., priority 2012, dated 2015).

Series [1] concerns IMQ-induced psoriasis. The series can be described thus: Imiquimod (IMQ)-induced dermal inflammation/psoriasis model (Study 2). It counts as in vivo, BALB/c mice. The conditions noted are these: Compound 2 2.5 mg/kg sc, cyclophosphamide 10 mg/kg oral. The protocol: Forty (40) male BALB/c mice (Biological E Limited, Hyderabad (CPCSEA registration number: 36/99/CPCSEA)) were divided into four (4) groups consisting of ten (10) mice each. Animals were randomized based on their body weight. The groups were designated as Group-I (Nave), Group-II (IMQ; vehicle (PEG 400 and HPBCD)), Group-III (IMQ; Compound 2 (2.5 mg/kg)) and […] (IMQ; cyclophosphamide (10 mg/kg)).
A small area on the dorsum of each mouse was shaved, ensuring that these areas were of equal size/area. Psoriasis was induced in Groups II to IV by topical application of 50 mg of IMQ cream daily from Day 1 to Day 6 on the dorsum of the animals. On Day 1 and Day 2 of the study, four hours after topical application of IMQ, Compound 2 or positive control (cyclophosphamide) or vehicle were administered to animals in pertinent groups. Of note, animals in Group II and Group III were subjected to subcutaneous injections, whereas animals in Group IV received oral administration. The Compound 2, vehicle and cyclophosphamide treatment was terminated on Day 2. These groups of animals were maintained on daily IMQ treatments until Day 6. On Day 7, the psoriasis-induced animals were re-randomized into 3 groups consisting of 10 animals each based on Cumulative Disease Activity Index (CDAI). From Day 7 to Day 9, animals received vehicle or positive control or Compound 2. Of note, on these days animals were not treated with IMQ. From Day 10 to Day 14, the animals were treated alternatively with IMQ (Days 10, 12 and 14), or vehicle, positive control or Compound 2 (Days 11, 13).
All animals were observed daily for a period of […] for gross observations, body weight and feed and water intake. On Days 1 and 2, scorings of erythema, scaling, folding and thickening of skin were recorded 2 hours after administration of vehicle/positive control/test compounds, and on Days 3 to 14 scorings were recorded 4 hours after IMQ application, or administration of positive control, vehicle or Compound 2.
Vehicle was prepared by dissolving 40 mg of HPBCD in 70.0 mL of distilled water. Compound 2 was prepared by dissolving 3.59 mg in 0.5% PVP and 0.5% Pluronic. Cyclophosphamide was prepared by dissolving 500 mg of CMC in 100 mL distilled water.
The experimental results shown in Table 10 are expressed as mean±SEM. Data was assessed using one-way ANOVA, and post hoc analysis was performed using Dunnett's test.

For series [2], the system named is A549 xenograft tumors. The series can be described thus: A549 lung carcinoma xenograft model. It counts as in vivo, CB-17 SCID mice. The conditions noted are these: cisplatin 5 mg/kg IP (positive control). The protocol: The A549 cell line was derived from explant culture of alveolar carcinoma tissue from a person. The cells were grown in Ham's F12-K tissue culture media with 10% fetal calf serum and 1% penicillin/streptomycin. Cells were routinely trypsinized and passaged 1:10. Thirty-two (32) female CB-17 SCID mice (Charles River Labs strain code 236), aged 5 to 6 weeks were used with a mean pre-treatment body weight of 16.3 grams. Mice were divided into four (4) groups of eight (8) prior to the initiation of treatment based on tumor volume. On the day of implantation, cells were washed in PBS, trypsinized and resuspended in complete media to a density of 2×10^7 cells/mL prior to being mixed with an equal volume of Matrigel. This mixture was then inoculated subcutaneously into mice in a volume of 0.1 mL using a 23 G needle.
Animal weights and condition were recorded daily, and tumors were measured on Mondays, Wednesdays and Fridays with micro-calipers, and tumor volume was calculated as (length×width×width)/2.
Animals with weight loss of more than 20% of their starting weight were euthanized. Mice with weight loss of more than 15% of their starting weight were not treated again until weight loss recovered to less than 5% of their starting weight. Any animals with a tumor volume of more than 1500 mm^3 were euthanized.
Dosing solutions were prepared fresh on each day of dosing. Compound 2 was supplied as a lyophilized powder containing 69.61% Compound 2 with the balance made up of Pluronic F-68 and PVP K29/32. This was prepared by dissolving the lyophilized powder in sterile water. Cisplatin was dissolved at 5 mg/mL in DMSO and diluted 1:10 in sterile water for injection. All test articles were administered in a volume of 0.1 mL/10 g body weight.
Statistical differences between treatment groups were determined using Mann-Whitney Rank Sum or ANOVA tests with a critical value of 0.05.

Series [3] can be described thus: MTT Cell Proliferation Assay (CellTiter 96 AQueous One Solution, MTS). It counts as cell-based. As to conditions: human; 72 h treatment; cell line not given; read-out: Cytotoxicity [IC50]. The source says:
The CellTiter 96® AQueous One Solution cell proliferation assay (Promega) was used on MM1.S, Jurkat and HCT-116 cells to study the cytotoxic and cytostatic properties of the compounds. The assay is based on the cleavage of the tetrazolium salt, MTS, in the presence of an electron-coupling reagent PES (phenazine ethosulfate). The MTS tetrazolium compound is bioreduced by cells into a colored formazan product that is soluble in tissue culture medium. This conversion is presumably accomplished by NADPH or NADH produced by dehydrogenase enzymes in metabolically active cells. Assays are performed by adding a small amount of the CellTiter 96® AQueous One solution reagent directly to culture wells, incubating for 1-4 hours and then recording the absorbance at 490 nm with a 96-well plate reader. […] The cells were seeded at 5×10^3 to 1.5×10^4 cells (depending on cell type) in each well of 96-well plate in 100 μL of fresh culture medium and adherent cells were allowed to attach for overnight. The stock solutions of the compounds were diluted in cell culture medium to obtain eight concentrations of each drug, ranging from 1 nM to 30 μM and DMSO at less than 1% v/v was used as a negative control. After 72 h of treatment 20 μl of CellTiter 96® AQueous reagent was added into each well of the 96-well assay plates and the plate was incubate at 37° C. for 1-4 hours in a humidified, 5% CO2 atmosphere. Then the absorbance of each well was recorded at 490 nm by using a 96-well plate reader. In most cases the assay was performed in triplicates and the results were presented as half maximal inhibitory concentration (IC50) described below. Optical density versus compound concentration was plotted and analyzed using non linear regression equations (Excel Fit) and the IC50 for each compound was calculated.

Series [4] can be described thus: Pharmacokinetics (plasma AUC) in mice. The conditions noted are these: mouse, 10 mg/kg po. It counts as in vivo. The protocol: Blood was collected from mice (N=3) to contribute to the total of 10 time points (pre-dose, 5 min, 15 min, 30 min, 1 hour, 2 hours, 4 hours, 8 hours, 12 hours and 24 hours post dose). Mice were bled on a rotating basis, each mouse contributing 3 time points to the blood collection. At the designated time points, animals were anaesthetized under isoflurane, and approximately 110 μL of blood per time point was collected via retro-orbital puncture into pre-cooled K2EDTA (anti-coagulant) tubes. Blood samples were put on wet ice and centrifuged (2000 g, 5 min at 4° C.) to obtain plasma within 30 minutes of sample collection. All samples were stored frozen at approximately −80° C. until analysis. Prior to analysis, samples were mixed with internal standard (dexamethasone) in acetonitrile, vortexed, centrifuged, and supernatant was injected for analysis. Concentration of compounds in plasma was determined using LC-MS-MS instrumentation (API 4000, Triple Quadruple with electrospray ionization; Acuity Ultra Performance Liquid Chromatography column C18, with MeOH and formic acid as organic solvents). PK parameters including but not limited to Tmax, Cmax, t1/2, AUClast, AUCinf were calculated using WinNonlin Professional 6.2 software package, non-compartmental pharmacokinetic model NCA200.

Series [5] addresses T1, CRM1 (Homo sapiens, UniProt O14980).
T1 construct: endogenous in cells; host or cells: U2OS-RevGFP cells
Put plainly: RevGFP assay: inhibition of CRM1 mediated nuclear export. It counts as cell-based. As to conditions: U2OS-RevGFP cells, ~1 hr with compound; read-out: Rev Export [IC50]. The protocol:
The inhibition of CRM1 mediated nuclear export by compounds of the invention was determined. The inhibitory activity of compounds for the CRM1 protein was determined in the RevGFP assay.
Experimental protocol: Rev is a protein from human immunodeficiency virus type 1 (HIV-1) and contains a nuclear export signal (NES) in its C-terminal domain and a nuclear localization signal (NLS) in its N-terminal domain. Nuclear export of Rev protein is dependent on the classical NES/CRM1 pathway (Neville et al, 1997, Kau et al, 2003). Nuclear accumulation of Rev is observed in cells treated with specific inhibitors of CRM1, such as LMB (Kau et al, 2003). In this assay, U2OS-RevGFP cells are seeded onto clear-bottom, black, 384-well plates the day before the experiment. Compounds are serially diluted 1:2 starting from 40 μM in a separate 384-well plate in DMEM, and then transferred onto cells. Cells are incubated with compound for ˜1 hr before fixation with 3.7% formaldehyde and nuclei staining with Hoechst 33258. The amount of GFP in cell nuclei was measured and compound IC50s were determined (Kau et al, 2003).

A short description of series [6]: Pharmacokinetics (plasma AUC) in rats. It counts as in vivo. As to conditions: rat, 10 mg/kg po.
Series [7] is described as follows: Brain to plasma ratio (B:P) in rats. It counts as in vivo. The conditions noted are these: 10 mg/kg po. The protocol:
Brain tissue following collection was rinsed with cold saline, dried on filter paper, weighed and snap-frozen by placing on dry ice. All samples were stored frozen at approximately −80° C. until analysis. […] Plasma samples were treated with the identical method (except homogenization step) and concentration of compound in either matrix was calculated based on the generated standard curves.

Some results are limits rather than exact numbers.

T1 sequence (O14980 whole entry): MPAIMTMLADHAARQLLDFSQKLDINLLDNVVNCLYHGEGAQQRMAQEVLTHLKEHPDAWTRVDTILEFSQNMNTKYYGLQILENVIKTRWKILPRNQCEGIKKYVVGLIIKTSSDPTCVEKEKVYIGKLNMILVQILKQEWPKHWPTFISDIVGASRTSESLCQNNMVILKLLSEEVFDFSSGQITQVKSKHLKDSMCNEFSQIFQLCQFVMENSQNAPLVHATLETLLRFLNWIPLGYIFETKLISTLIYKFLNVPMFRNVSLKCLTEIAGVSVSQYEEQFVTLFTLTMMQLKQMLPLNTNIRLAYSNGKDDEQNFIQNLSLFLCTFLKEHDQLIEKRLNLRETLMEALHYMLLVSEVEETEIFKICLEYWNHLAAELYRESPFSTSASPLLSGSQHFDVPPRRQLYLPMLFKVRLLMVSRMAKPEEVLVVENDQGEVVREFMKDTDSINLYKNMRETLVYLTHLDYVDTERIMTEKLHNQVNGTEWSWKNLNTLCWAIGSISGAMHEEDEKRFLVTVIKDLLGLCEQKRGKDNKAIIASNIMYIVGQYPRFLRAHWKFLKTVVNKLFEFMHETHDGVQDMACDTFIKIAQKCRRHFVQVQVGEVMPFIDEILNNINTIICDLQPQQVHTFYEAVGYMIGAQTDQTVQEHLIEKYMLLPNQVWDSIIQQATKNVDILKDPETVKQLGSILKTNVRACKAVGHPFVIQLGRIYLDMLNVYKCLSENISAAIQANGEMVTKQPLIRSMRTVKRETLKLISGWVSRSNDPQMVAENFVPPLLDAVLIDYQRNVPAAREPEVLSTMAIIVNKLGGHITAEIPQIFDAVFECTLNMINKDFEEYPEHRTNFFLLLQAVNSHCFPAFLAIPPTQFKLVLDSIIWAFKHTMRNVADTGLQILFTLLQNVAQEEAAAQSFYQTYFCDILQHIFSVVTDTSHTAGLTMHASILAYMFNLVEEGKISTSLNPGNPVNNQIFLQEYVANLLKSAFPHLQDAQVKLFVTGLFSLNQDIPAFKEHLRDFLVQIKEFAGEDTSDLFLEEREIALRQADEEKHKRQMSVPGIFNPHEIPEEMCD

On to `O=P1(N(CCCl)CCCl)NCCCO1` (stereo not drawn) [cyclophosphamide, reference compound], for which the “Rate of reduction of DAI, % change from 1st dose administration” value is recorded as 0.0% in series [1] (Day 7, pre-IMQ/drug administration readings) and −86.0% in series [1] (Day 10, 4 hr. post-IMQ/drug administration readings).
On to `N.N.[Cl][Pt][Cl]` [cisplatin, reference compound], for which the “tumor volume AUC compared to vehicle control (one-way ANOVA)” value in series [2] is recorded as “no statistically significant reduction in tumor growth”.
What is called IC50 is the concentration that inhibits the measured activity by half. The AUC(0-inf) is total exposure, with the tail of the curve extrapolated. For the molecule `O=C(/C=C\n1cnc(-c2cc(C(F)(F)F)cc(C(F)(F)F)c2)n1)N1CC(F)(F)C1` [Compound X-3, reference compound], the concentration for half-maximal inhibition (IC50) at 72 h in series [3] was below 1000 nM. The total exposure AUC(0-inf) in series [4] and in series [6] was 12300 ng·h/mL throughout. Besides, in series [5], the half-maximal inhibitory concentration (IC50) was below 1000 nM.
The Kp is the ratio of the level in a tissue or fluid to that in plasma or blood. `CC(C)OC(=O)/C=C\n1cnc(-c2cc(OC(C)C)cc(C(F)(F)F)c2)n1` [Compound X-2]: in series [3], the IC50 at 72 h is below 1000 nM. Also, the 50% inhibitory concentration (IC50) in series [5] is below 1000 nM. In addition, the area under the curve AUC(0-inf) in series [6] came to 68.3 ng·h/mL. For the same molecule, in series [7], the “B:P” value is on record as “moderate brain to plasma ratio”. Further, the Kp at 2 h in series [7] (rat, brain and plasma) amounted to 1.27.
